In general, ED50 refers to the dose that gives a 50% effect, or the effect in half of the subjects.

Eleven compounds from ChEMBL document CHEMBL1134185, “Synthesis and anticonvulsant activity of novel and potent 1-aryl-7,8-methylenedioxy-1,2,3,5-tetrahydro-4H-2,3-benzodiazepin-4-ones” (2001) can be followed below.

Experiment [1] can be described thus: Anticonvulsant activity against audiogenic tonic seizures in DBA/2 mice, administered ip 30 minutes before auditory stimulation. The settings on record: Mus musculus. In kind it is functional.
Experiment [2] concerns Mus musculus. As to the kind of experiment: Effective dose required for anticonvulsant activity by ip administration against clonic phase of audiogenic seizures in DBA/2 mice after pretreatment with aniracetam+ 2,3-benzodiazepine (p<0.01). In kind it is functional.
Experiment [3] concerns Mus musculus. As to the kind of experiment: Effective dose required for anticonvulsant activity by ip administration against tonic phase of audiogenic seizures in DBA/2 mice after pretreatment with aniracetam+ 2,3-benzodiazepine (p<0.01). The format is functional.
The species named for experiment [4] is Mus musculus. As to the kind of experiment: Ratio of TD50 to ED50, expressed as protective index. In kind it is functional.
Experiment [5] deals with Mus musculus. Nature of the experiment: Effective dose required for anticonvulsant activity against AMPA-induced clonic seizure in Swiss mice 45 minutes after ip administration of the compound. The format is functional. The conditions noted are these: 0.75 h.
Experiment [6] has as its system Mus musculus. As to the kind of experiment: Effective dose required for anticonvulsant activity against Clonic phase of seizure in DBA/2 mice 120 minutes after ip administration of the compound. The format is functional. The conditions noted are these: 2 h.
The subject of experiment [7] is Mus musculus. As to the kind of experiment: Effective dose required for anticonvulsant activity against Clonic phase of seizure in DBA/2 mice 15 minutes after ip administration of the compound. The format is functional. The conditions noted are these: 0.25 h.
Experiment [8] deals with Mus musculus. Nature of the experiment: Effective dose required for anticonvulsant activity against Clonic phase of seizure in DBA/2 mice 30 minutes after ip administration of the compound. The settings on record: 0.5 h. In kind it is functional.
The subject of experiment [9] is Mus musculus. Nature of the experiment: Effective dose required for anticonvulsant activity against Clonic phase of seizure in DBA/2 mice 45 minutes after ip administration of the compound. In kind it is functional. The settings on record: 0.75 h.
Experiment [10] has as its system Mus musculus. Nature of the experiment: Effective dose required for anticonvulsant activity against Clonic phase of seizure in DBA/2 mice 60 minutes after ip administration of the compound. The format is functional. The conditions noted are these: 1 h.
Experiment [11] relates to Mus musculus. As to the kind of experiment: Effective dose required for anticonvulsant activity against Clonic phase of seizure in DBA/2 mice 90 minutes after ip administration of the compound. The format is functional. The conditions noted are these: 1.5 h.
For experiment [12], the system named is Mus musculus. Nature of the experiment: Effective dose required for anticonvulsant activity against KA-induced seizure was evaluated in Swiss mice on sc administration at CD97 (32 mg/kg) 15 minutes after ip injection of compound. In kind it is functional. The settings on record: 0.25 h.
Experiment [13] concerns Mus musculus. As to the kind of experiment: Effective dose required for anticonvulsant activity against MES-induced Tonic seizure in Swiss mice 45 minutes after ip administration of the compound. In kind it is functional. The conditions noted are these: 0.75 h.
The nature of experiment [14]: Anticonvulsant activity against audiogenic Clonic seizures in DBA/2 mice, administered ip 30 minutes before auditory stimulation. The format is functional. The settings on record: Mus musculus.
For experiment [15], the species on record is Mus musculus. As to the kind of experiment: Percent reduction of KA-evoked current with the patch clamp technique in cerebellar granule neurons grown in primary culture at a dose level of 100 uM was evaluated. The format is functional. A general note: The patch-clamp technique gives a direct electrical read-out from membranes.
Experiment [16] deals with Mus musculus. As to the kind of experiment: Effective dose required for anticonvulsant activity against AMPA-induced Tonic seizure in DBA/2 mice 45 minutes after ip administration of the compound. The settings on record: 0.75 h.
Experiment [17] has as its system Mus musculus. As to the kind of experiment: Effective dose required for anticonvulsant activity against PTZ-induced Clonic seizure in Swiss mice 45 minutes after ip administration of the compound. The conditions noted are these: 0.75 h.
Experiment [18] is filed under the species Mus musculus. Nature of the experiment: Dose required to produce locomotor deficit assessed by rotarod test in DBA/2 mice. In kind it is functional. (In general: Falling from the rotarod earlier than controls is read as motor impairment.)
Experiment [19] concerns Mus musculus. As to the kind of experiment: Effective dose required for anticonvulsant activity against AMPA-induced tonic seizure in Swiss mice 45 minutes after ip administration of the compound. In kind it is functional. The conditions noted are these: 0.75 h.

Regarding `Nc1ccc(C2NNC(=O)Cc3cc4c(cc32)OCO4)cc1` (centres undefined), the ED50 is 6.47 µmol/kg in [1]; 52.3 µmol/kg in experiment [2]; 33.1 µmol/kg in experiment [3]; 24.6 µmol/kg in [5]; 39.5 µmol/kg in experiment [6]; above 50 µmol/kg in experiment [7]. Also, the ED50 turned out to be 11.4 µmol/kg in experiment [8]; 18.7 µmol/kg in [9]; 23.4 µmol/kg in experiment [10]; 37.1 µmol/kg in experiment [11]; 15.9 µmol/kg in experiment [12]; 35.7 µmol/kg in experiment [13]. Besides, the median effective dose (ED50) in [14] was 11.4 µmol/kg; in experiment [16] it was 17.5 µmol/kg; in experiment [17], 59.7 µmol/kg. In experiment [4], the Ratio worked out at 3.6. Also, the Reduction in experiment [15] came out at 38%.
Regarding `CCC(=O)NN1N=C(c2ccc(N)cc2)c2cc3c(cc2CC1=O)OCO3`, the median effective dose (ED50) in experiment [1] was 6.47 µmol/kg; in [14], 11.4 µmol/kg. The Ratio in experiment [4] stood at 3.6. The compound also came in with a TD50 in [18] of 41.2 µM/kg.
Taken in the same sequence, the figures for `CCC(=O)NN1NC(c2ccc(N)cc2)c2cc3c(cc2CC1=O)OCO3` (centres undefined) were 18.1 µmol/kg, 24.6 µmol/kg, 3.5 and 86.1 µM/kg.
`CCCC(=O)NN1N=C(c2ccc(N)cc2)c2cc3c(cc2CC1=O)OCO3`: the values for the median effective dose (ED50) in experiment [1] and in [14] were 5.09 µmol/kg and 69.4 µmol/kg, respectively. The Ratio in experiment [4] stood at 3.4. This compound displayed a TD50 in experiment [18] of 398 µM/kg.
Taken in the same sequence, the figures for `CCCCC(=O)NN1N=C(c2ccc(N)cc2)c2cc3c(cc2CC1=O)OCO3` were 14.2 µmol/kg, 22.4 µmol/kg, 4.7 and 673 µM/kg.
For `Nc1ccc(C2=NNC(=O)Cc3cc4c(cc32)OCO4)cc1`, the ED50 is 37.6 µmol/kg in experiment [5] and 27 µmol/kg in experiment [19].
`CC(=O)NN1N=C(c2ccc(N)cc2)c2cc3c(cc2CC1=O)OCO3`: the ED50 in [1] worked out at 10.9 µmol/kg; in [14], 15.4 µmol/kg; in experiment [18], 99.1 µmol/kg. Moreover, in experiment [4], the Ratio is listed as 4.5.
For the compound `CCCC(=O)NN1NC(c2ccc(N)cc2)c2cc3c(cc2CC1=O)OCO3` (centres undefined), the median effective dose (ED50) in experiment [1] was determined as 32.6 µmol/kg; in [14], 38.7 µmol/kg. In addition, the Ratio in experiment [4] is listed as 2.8. Further, the TD50 in experiment [18] was 108 µM/kg.
Consider `CC(=O)NN1NC(c2ccc(N)cc2)c2cc3c(cc2CC1=O)OCO3` (centres undefined), for which the ED50 in experiment [1] amounted to 49.2 µmol/kg; in experiment [14] it was 69.4 µmol/kg. Also, the Ratio in experiment [4] turned out to be 2.6. In [18], the TD50 turned out to be 182 µM/kg.
Take `O=C1Cc2cc3c(cc2C(c2ccccc2)=NN1)OCO3`: the Ratio in experiment [4] is recorded as 3.7.
For the compound `CC1=NN=C(c2ccc(N)cc2)c2cc3c(cc2C1)OCO3` [GYKI-52466], in experiment [4], the Ratio was determined as 2.1.
